Experimental data from US9394329B2, “Glucopyranosyl derivatives and their uses in medicine” (Sunshine Lake Pharma Co., Ltd., priority 2013, dated 2016).

Experiments:
[1] = molecular target: T1, SGLT-2 (Homo sapiens, UniProt P31639); experiment: SGLT-2 activity measurement ([14C]-AMG uptake in CHO cells expressing human SGLT2); format: cell-based; conditions: CHO cells expressing human SGLT2, 0.5 μm [14C]-AMG, 37° C. for 1 hour
T1 construct: expressed in transfected cells
T1 sequence (P31639 1-672): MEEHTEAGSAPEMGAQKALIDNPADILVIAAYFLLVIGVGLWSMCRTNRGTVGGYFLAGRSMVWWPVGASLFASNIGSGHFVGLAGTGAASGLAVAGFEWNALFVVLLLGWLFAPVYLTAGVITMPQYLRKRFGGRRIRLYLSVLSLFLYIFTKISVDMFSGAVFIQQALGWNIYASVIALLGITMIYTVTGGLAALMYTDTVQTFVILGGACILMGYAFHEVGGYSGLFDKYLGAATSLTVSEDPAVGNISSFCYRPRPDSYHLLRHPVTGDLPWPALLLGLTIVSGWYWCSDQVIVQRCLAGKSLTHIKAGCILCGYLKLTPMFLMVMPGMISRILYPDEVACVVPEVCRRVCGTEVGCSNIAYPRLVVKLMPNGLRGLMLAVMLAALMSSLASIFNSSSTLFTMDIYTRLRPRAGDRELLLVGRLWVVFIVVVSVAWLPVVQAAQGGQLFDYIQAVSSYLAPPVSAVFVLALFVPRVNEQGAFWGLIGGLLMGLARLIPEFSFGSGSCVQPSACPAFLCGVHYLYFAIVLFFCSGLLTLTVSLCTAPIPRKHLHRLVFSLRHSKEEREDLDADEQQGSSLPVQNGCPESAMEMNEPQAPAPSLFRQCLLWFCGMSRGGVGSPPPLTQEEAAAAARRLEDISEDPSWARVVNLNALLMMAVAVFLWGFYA
Text: (§1) The following methods can be used to determine the inhibitory activity of the compounds described in the invention for SGLT-1 and SGLT-2.
(§2) ^14C-AMG solution was purchased from PerkinElmer, Cat. No. NEZ080001MC.
(§3) α-Methylglucoside was purchased from Sigma, Cat. No. M9376-100G.
(§4) N-methyl-D-glucosamine was purchased from Sigma, Cat. No. M2004-100G.
(§5) Phloridzin was purchased from Sigma, Cat. No. P3449-1G.
(§6) 96-Well plate was purchased from Corning, Cat. No. 3903.
(§7) Mock-transfected FIP-in CHO cells (3×10^4 cells) and expressing human SGLT1/SGLT2 CHO cells were seeded into 96-well plates respectively. The cells were incubated for 12 hours. Each well of the 96-well plates was washed with 150 μL of sodium-free buffer once. To each well was added 50 μL of sodium-containing buffer containing test compounds having different concentrations and […] [^14C]-AMG. The incubation mixture was incubated at 37° C. for 1 hour. To each well was added 150 μL of precooled sodium-free buffer to terminate the reaction. The cell pellet was washed with sodium-free buffer three times and the residual liquid in well was removed. To each well was added 20 μL of precooled 100 mM NaOH. The 96-well plates were vibrated at 900 rpm for 5 minutes. Scintillation fluid (80 μL) was added to each well which was then vibrated at 600 rpm for 5 minutes. The amount of ^14C-AMG was quantitatively detected using liquid scintillation.

[2] = molecular target: T2, SGLT-1 (Homo sapiens, UniProt P13866); experiment: SGLT-1 activity measurement ([14C]-AMG uptake in CHO cells expressing human SGLT1); format: cell-based; conditions: CHO cells expressing human SGLT1, 0.5 μm [14C]-AMG, 37° C. for 1 hour
T2 construct: expressed in transfected cells
T2 sequence (P13866 1-664): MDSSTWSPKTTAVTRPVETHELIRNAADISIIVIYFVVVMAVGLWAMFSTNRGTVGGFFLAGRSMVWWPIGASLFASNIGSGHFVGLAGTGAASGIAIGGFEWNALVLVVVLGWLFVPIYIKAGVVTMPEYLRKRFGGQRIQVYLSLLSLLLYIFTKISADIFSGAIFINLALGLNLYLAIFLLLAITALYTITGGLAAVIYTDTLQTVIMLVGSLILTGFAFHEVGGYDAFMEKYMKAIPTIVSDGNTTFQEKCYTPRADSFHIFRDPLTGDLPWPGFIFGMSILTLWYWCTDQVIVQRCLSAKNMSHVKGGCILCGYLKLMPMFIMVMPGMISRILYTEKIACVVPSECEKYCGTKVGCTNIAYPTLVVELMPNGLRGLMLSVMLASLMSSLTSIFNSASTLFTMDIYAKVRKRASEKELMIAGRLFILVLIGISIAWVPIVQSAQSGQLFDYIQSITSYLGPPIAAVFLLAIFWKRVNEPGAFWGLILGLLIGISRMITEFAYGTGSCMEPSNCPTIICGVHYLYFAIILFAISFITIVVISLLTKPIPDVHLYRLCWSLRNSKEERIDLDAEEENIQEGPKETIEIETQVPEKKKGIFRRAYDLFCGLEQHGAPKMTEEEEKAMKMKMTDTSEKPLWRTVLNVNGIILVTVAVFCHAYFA
Text: as §1, §2, §3, §4, §5, §6, §7

IC50 [1] [nM]	IC50 [2] [nM]	SMILES
1.27	180	CCOc1ccc(Cc2cc([C@]34OC[C@](C(C)O)(O3)[C@@H](O)[C@H](O)[C@H]4O)ccc2Cl)cc1F (stereo partly drawn) [Example 19, (1R,2S,3S,4R,5S)-5-[4-chloro-3-[(4-ethoxy-3-fluoro-phenyl)methyl]phenyl]-1-(1-hydroxyethyl)-6,8-dioxabicyclo[3.2.1]octane-2,3,4-triol]
0.81	120	COc1ccc(Cc2cc([C@]34OC[C@](C(C)O)(O3)[C@@H](O)[C@H](O)[C@H]4O)ccc2Cl)c(F)c1F (stereo partly drawn) [Example 21, (1R,2S,3S,4R,5S)-5-[4-Chloro-3-[(2,3-difluoro-4-methoxy-phenyl)methyl]phenyl]-1-(1-hydroxyethyl)-6,8-dioxabicyclo[3.2.1]octane-2,3,4-triol]
1.84	1040	COc1ccc(Cc2cc([C@]34OC[C@](C(C)(C)O)(O3)[C@@H](O)[C@H](O)[C@H]4O)ccc2Cl)c(F)c1F [Example 22, (1S,2S,3S,4R,5S)-5-[4-Chloro-3-[(2,3-difluoro-4-methoxy-phenyl)methyl]phenyl]-1-(1-hydroxy-1-methyl-ethyl)-6,8-dioxabicyclo[3.2.1]octane-2,3,4-triol]
2.28	560	CCOc1ccc(Cc2cc([C@]34OC[C@](C(C)O)(O3)[C@@H](O)[C@H](O)[C@H]4O)ccc2Cl)c(F)c1F (stereo partly drawn) [Example 23, (1R,2S,3S,4R,5S)-5-[4-Chloro-3-[(4-ethoxy-2,3-difluoro-phenyl)methyl]phenyl]-1-(1-hydroxyethyl)-6,8-dioxabicyclo[3.2.1]octane-2,3,4-triol]
12.6	3400	CCOc1ccc(Cc2cc([C@]34OC[C@](C(C)O)(O3)[C@H](O)[C@H](O)[C@H]4O)ccc2Cl)cc1 (stereo partly drawn) [Example 28, (1R,2R,3S,4R,5S)-5-[4-Chloro-3-[(4-ethoxyphenyl)methyl]phenyl]-1-(1-hydroxyethyl)-6,8-dioxabicyclo[3.2.1]octane-2,3,4-triol]

Second part, the molecule before the results:

SMILES	IC50 [1] [nM]	IC50 [2] [nM]
CC(O)[C@@]12CO[C@@](c3ccc(Cl)c(Cc4ccc(OCC(F)(F)F)cc4)c3)(O1)[C@H](O)[C@@H](O)[C@@H]2O (stereo partly drawn) [Example 17, (1R,2S,3S,4R,5S)-5-[4-Chloro-3-[[4-(2,2,2-trifluoroethoxy)phenyl]methyl]phenyl]-1-(1-hydroxyethyl)-6,8-dioxabicyclo[3.2.1]octane-2,3,4-triol]	1.22	820
CC(C)(O)[C@@]12CO[C@@](c3ccc(Cl)c(Cc4ccc(OCC(F)(F)F)cc4)c3)(O1)[C@H](O)[C@@H](O)[C@@H]2O [Example 18, (1S,2S,3S,4R,5S)-5-[4-Chloro-3-[[4-(2,2,2-trifluoroethoxyl)phenyl]methyl]phenyl]-1-(1-hydroxy-1-methyl-ethyl)-6,8-dioxabicyclo[3.2.1]octane-2,3,4-triol]	3.66	350
CCOc1ccc(Cc2cc([C@]34OC[C@](C(C)(C)O)(O3)[C@@H](O)[C@H](O)[C@H]4O)ccc2Cl)cc1F [Example 20, (1S,2S,3S,4R,5S)-5-[4-Chloro-3-[(4-ethoxy-3-fluoro-phenyl)methyl]phenyl]-1-(1-hydroxy-1-methyl-ethyl)-6,8-dioxabicyclo[3.2.1]octane-2,3,4-triol]	0.85	170
CC(C)(O)[C@@]12CO[C@@](c3ccc(Cl)c(Cc4ccc(OCC(F)F)cc4)c3)(O1)[C@H](O)[C@@H](O)[C@@H]2O [Example 25, (1S,2S,3S,4R,5S)-5-[4-Chloro-3-[[4-(2,2-difluoroethoxyl)phenyl]methyl]phenyl]-1-(1-hydroxy-1-methyl-ethyl)-6,8-dioxabicyclo[3.2.1]octane-2,3,4-triol]	3.48	5560
